# Measurements taken from patent US12240840B2, “Amide-substituted heterocyclic compounds for the treatment of conditions related to the modulation of IL-12, IL-23 and/or IFN-alpha” (BRISTOL-MYERS SQUIBB COMPANY, priority 2018, dated 2025).
# System: IFNα-induced pSTAT5 (pY694) in CD3 positive cells of human whole blood
# Test: IFNα-Induced STAT Phosphorylation in Human Whole Blood
# Format: cell-based
# Details: Homo sapiens, 1 h compound incubation, 1000 U/mL recombinant human IFNα A/D for 15 min, pSTAT5 in CD3 positive population, read-out: Human WB IFNα-Induced Stat Phosph. (IC50)
# Experimental: IFNα-Induced STAT Phosphorylation in Human Whole Blood
# After an hour long incubation with compound, human whole blood (drawn with either EDTA or ACD-A as anti-coagulant) was stimulated with 1000 U/mL recombinant human IFNα A/D (R&D Systems 11200-2) for 15 min. The stimulation was stopped by adding Fix/Lyse buffer (BD 558049). Cells were stained with a CD3 FITC antibody (BD 555916), washed, and permeabilized on ice using Perm III buffer (BD 558050). Cells were then stained with an Alexa-Fluor 647 pSTAT5 (pY694) antibody (BD 612599) for 30 min prior to analysis on the FACS Canto II. The amount of pSTAT5 expression was quantitated by median fluorescence intensity after gating on the CD3 positive population.
# IFNα-Induced STAT Phosphorylation in Human Whole Blood Inhibition Data ND—no data available
row,Structure (SMILES),IC50
1,[2H]C([2H])([2H])NC(=O)c1nnc(NC(=O)C2CC2)cc1Nc1cccc(-c2noc(C(CC)C(=O)NCCOC)n2)c1OC (stereo not drawn) [Example 41],60 nM
2,[2H]C([2H])([2H])NC(=O)c1nnc(NC(=O)C2CC2)cc1Nc1cccc(-c2nc(CN(C)C(=O)COC)no2)c1OC [Example 170],570 nM
3,[2H]C([2H])([2H])NC(=O)c1nnc(NC(=O)C2CC2)cc1Nc1cccc(-c2cnn(CC(=O)NCC)n2)c1OC [Example 427],90 nM
4,[2H]C([2H])([2H])NC(=O)c1nnc(Nc2ccc(OC)nn2)cc1Nc1cccc(-c2ncc(CNS(C)(=O)=O)s2)c1OC [Example 390],240 nM
5,[2H]C([2H])([2H])NC(=O)c1nnc(NC(=O)C2CC2)cc1Nc1cccc(-c2ncc(C(=O)N[C@H]3C[C@H]4CC[C@@H](C3)N4C)s2)c1OC [Example 338],420 nM
6,[2H]C([2H])([2H])NC(=O)c1nnc(NC(=O)C2CC2)cc1Nc1cccc(-c2nc(CN3CCN(C(=O)COC)CC3)no2)c1OC [Example 127],260 nM
7,[2H]C([2H])([2H])NC(=O)c1nnc(Nc2ccc(C)nn2)cc1Nc1cc(F)cc(-c2cc(C(=O)N(C)C)n(C)n2)c1OC [Example 555],40 nM
8,CCS(=O)(=O)N(C)Cc1nc(-c2cccc(Nc3cc(NC(=O)C4CC4)nnc3C(N)=O)c2OC)no1 [Example 57],9 nM
9,[2H]C([2H])([2H])NC(=O)c1nnc(NC(=O)C2CC2)cc1Nc1cccc(-c2noc(CN3CCN(C(=O)OC(C)(C)C)CC3)n2)c1OC [Example 34],1010 nM
10,[2H]C([2H])([2H])NC(=O)c1nnc(NC(=O)C2CC2)cc1Nc1cccc(-c2cc(C)nn2CCNC(=O)COC)c1OC [Example 461],220 nM
11,[2H]C([2H])([2H])NC(=O)c1nnc(NC(=O)C2CC2)cc1Nc1cccc(-c2cc(C(=O)N3CCC(OC)C3)n(C)n2)c1OC (stereo not drawn) [Example 522],190 nM
12,[2H]C([2H])([2H])NC(=O)c1nnc(NC(=O)C2CC2)cc1Nc1cccc(-c2nc(C)c(C(=O)NC(C)C)s2)c1OC [Example 364],440 nM
13,[2H]C([2H])([2H])NC(=O)c1nnc(NC(=O)C2CC2)cc1Nc1cccc(-c2cc(C(=O)N3CCN(O)CC3)n(C)n2)c1OC [Example 478],150 nM
14,[2H]C([2H])([2H])NC(=O)c1nnc(NC(=O)C2CC2)cc1Nc1cccc(-c2nc(C)c(C(=O)N3CCC(N4CCCC4)CC3)s2)c1OC [Example 361],190 nM
15,[2H]C([2H])([2H])NC(=O)c1cnc(NC(=O)C2CC2)cc1Nc1cc(F)cc(-c2cnn(C)n2)c1OC [Example 453],60 nM
16,COC(=O)N1CCN(Cc2nc(-c3cccc(Nc4cc(NC(=O)C5CC5)nnc4C(N)=O)c3OC)no2)CC1 [Example 39],23 nM
17,[2H]C([2H])([2H])NC(=O)c1nnc(NC(=O)C2CC2)cc1Nc1cccc(-c2ncc(C(=O)NCCNC(=O)CC)s2)c1OC [Example 240],180 nM
18,[2H]C([2H])([2H])NC(=O)c1nnc(NC(=O)C2CC2)cc1Nc1cccc(-c2cc(C(=O)NCCC#N)n(C)n2)c1OC [Example 477],1100 nM
19,COc1c(Nc2cc(NC(=O)C3CC3)nnc2C(N)=O)cccc1-c1noc([C@H](C)N(C)S(C)(=O)=O)n1 [Example 51],160 nM

row,Structure (SMILES),IC50
1,[2H]C([2H])([2H])NC(=O)c1nnc(Nc2ccc(C)nn2)cc1Nc1cccc(-c2ncc(C(C)O)s2)c1OC (stereo not drawn) [Example 392],23 nM
2,COc1c(Nc2cc(NC(=O)C3CC3)nnc2C(N)=O)cccc1-c1ncc(C(=O)N2CCOCC2)o1 [Example 414],310 nM
3,[2H]C([2H])([2H])NC(=O)c1nnc(NC(=O)C2CC2)cc1Nc1cccc(-c2nc(CN3CCN(C(=O)c4ccccn4)CC3)no2)c1OC [Example 130],490 nM
4,[2H]C([2H])([2H])NC(=O)c1nnc(NC(=O)C2CC2)cc1Nc1cccc(-c2cc(C)nn2CCN)c1OC [Example 463],800 nM
5,COc1c(Nc2cc(NC(=O)C3CC3)nnc2C(N)=O)cccc1-c1ncc(C(=O)NCC(O)CO)o1 (stereo not drawn) [Example 420],220 nM
6,[2H]C([2H])([2H])NC(=O)c1nnc(NC(=O)C2CC2)cc1Nc1cccc(-c2ccn(CCNS(C)(=O)=O)n2)c1OC [Example 466],420 nM
7,[2H]C([2H])([2H])NC(=O)c1nnc(NC(=O)C2CC2)cc1Nc1cccc(-c2nc(CN3CC4CN(S(C)(=O)=O)CC4C3)no2)c1OC (stereo not drawn) [Example 235],50 nM
8,[2H]C([2H])([2H])NC(=O)c1nnc(NC(=O)C2CC2)cc1Nc1cc(F)cc(-c2cc(C(=O)N3CCC(N(C)C)CC3)n(C)n2)c1OC [Example 515],290 nM
9,[2H]C([2H])([2H])NC(=O)c1nnc(NC(=O)C2CC2)cc1Nc1cc(F)cc(-c2cc(C(=O)N(C)CCCN(C)C)n(C)n2)c1OC [Example 510],460 nM
10,[2H]C([2H])([2H])NC(=O)c1cnc(NC(=O)C2CC2)cc1Nc1cccc(-c2noc(CN(C)S(C)(=O)=O)n2)c1OC [Example 94],11 nM
11,COc1c(Nc2cc(NC(=O)C3CC3)nnc2C(N)=O)cccc1-c1noc(CN(C)S(C)(=O)=O)n1 [Example 44],9 nM
12,[2H]C([2H])([2H])NC(=O)c1nnc(NC(=O)C2CC2)cc1Nc1cccc(-c2nc(CC(=O)NCC)no2)c1OC [Example 178],550 nM
13,[2H]C([2H])([2H])NC(=O)c1nnc(NC(=O)C2CC2)cc1Nc1cccc(-c2cc(C(=O)N3CCN(C(=O)OC)CC3)n(C)n2)c1OC [Example 494],250 nM
14,[2H]C([2H])([2H])NC(=O)c1nnc(NC(=O)C2CC2)cc1Nc1cccc(-c2nc(CN3C[C@@H](C)O[C@@H](C)C3)no2)c1OC [Example 158],400 nM
15,[2H]C([2H])([2H])NC(=O)c1nnc(NC(=O)C2CC2)cc1Nc1cccc(-c2ncc(N)s2)c1OC [Example 282],180 nM
16,[2H]C([2H])([2H])NC(=O)c1nnc(NC(=O)C2CC2)cc1Nc1cccc(-c2nc(CNC(=O)CN3CCNCC3)no2)c1OC [Example 162],2730 nM
17,[2H]C([2H])([2H])NC(=O)c1nnc(NC(=O)C2CC2)cc1Nc1cccc(-c2nc(CCO)no2)c1OC [Example 225],350 nM
18,CCN(Cc1nc(-c2cccc(Nc3cc(NC(=O)C4CC4)nnc3C(N)=O)c2OC)no1)S(C)(=O)=O [Example 59],13 nM
19,COc1c(Nc2cc(NC(=O)C3CC3)nnc2C(N)=O)cccc1-c1ncc(C(=O)NC2CCC(N(C)C)CC2)s1 (stereo not drawn) [Example 405],90 nM

row,Structure (SMILES),IC50
1,[2H]C([2H])([2H])NC(=O)c1nnc(NC(=O)C2CC2)cc1Nc1cccc(-c2noc(C(CCC)C(=O)N3CCOCC3)n2)c1OC (stereo not drawn) [Example 42],230 nM
2,COc1c(Nc2cc(NC(=O)C3CC3)nnc2C(N)=O)cccc1-c1ncc(C(=O)N2CCC(O)CC2)o1 [Example 419],200 nM
3,COc1c(Nc2cc(NC(=O)C3CC3)ncc2C(N)=O)cccc1-c1cnn(CCNC(=O)OC(C)(C)C)n1 [Example 444],2130 nM
4,[2H]C([2H])([2H])NC(=O)c1nnc(NC(=O)C2CC2)cc1Nc1cccc(-c2ncc(CNC(=O)COC)s2)c1OC [Example 263],830 nM
5,[2H]C([2H])([2H])NC(=O)c1nnc(NC(=O)C2CC2)cc1Nc1cccc(-c2ncc(C(=O)NCCN3CCCC(C)C3)s2)c1OC (stereo not drawn) [Example 324],60 nM
6,[2H]C([2H])([2H])NC(=O)c1nnc(NC(=O)C2CC2)cc1Nc1cccc(-c2nc(CNC(=O)CN)no2)c1OC [Example 155],780 nM
7,[2H]C([2H])([2H])NC(=O)c1nnc(NC(=O)C2CC2)cc1Nc1cccc(-c2ncc(C(=O)NCCN3CCOCC3)s2)c1OC [Example 321],30 nM
8,[2H]C([2H])([2H])NC(=O)c1nnc(NC(=O)C2CC2)cc1Nc1cccc(-c2noc(C(=O)N(C)C)n2)c1OC [Example 17],490 nM
9,COc1c(Nc2cc(NC(=O)C3CC3)nnc2C(N)=O)cccc1-c1noc([C@@H]2[C@H](O)CCN2S(C)(=O)=O)n1 [Example 66],30 nM
10,[2H]C([2H])([2H])NC(=O)c1nnc(Nc2ccc(C)nn2)cc1Nc1cccc(-c2ccn(CCNC(=O)COC)n2)c1OC [Example 542],890 nM
11,[2H]C([2H])([2H])NC(=O)c1nnc(NC(=O)C2CC2)cc1Nc1cccc(-c2nc(C)c(C(=O)N(C)CC)s2)c1OC [Example 370],160 nM
12,[2H]C([2H])([2H])NC(=O)c1nnc(NC(=O)C2CC2)cc1Nc1cccc(-c2nc([C@H](C)NC(=O)OC)no2)c1OC [Example 182],2010 nM
13,[2H]C([2H])([2H])NC(=O)c1nnc(NC(=O)C2CC2)cc1Nc1cccc(-c2ncc(CC(=O)NCCC3CCCN3C)s2)c1OC (stereo not drawn) [Example 254],5430 nM
14,[2H]C([2H])([2H])NC(=O)c1nnc(NC(=O)C2CC2)cc1Nc1cccc(-n2cc(CN3CCOCC3)nn2)c1OC [Example 2],650 nM
15,[2H]C([2H])([2H])NC(=O)c1nnc(NC(=O)C2CC2)cc1Nc1cccc(-c2nc(C(=O)N(C)C)cs2)c1OC [Example 276],690 nM
16,[2H]C([2H])([2H])NC(=O)c1nnc(NC(=O)C2CC2)cc1Nc1cccc(-c2ncc(C(=O)NCC(C)(C)CN(C)C)s2)c1OC [Example 339],40 nM
17,[2H]C([2H])([2H])NC(=O)c1nnc(NC(=O)C2CC2)cc1Nc1cccc(-c2cc(C(=O)N3CCOCC3)n(C)n2)c1OC [Example 459],80 nM
18,[2H]C([2H])([2H])NC(=O)c1cnc(Nc2cc(C(C)(C)O)ccn2)cc1Nc1cc(F)cc(-c2csc(C(=O)NCCOC)n2)c1OC [Example 573],2000 nM
19,[2H]C([2H])([2H])NC(=O)c1nnc(NC(=O)C2CC2)cc1Nc1cccc(-c2ncc(C(=O)NCCCC)s2)c1OC [Example 314],260 nM
